How the values were obtained:
[1] = system: Green peach aphids (Myzus Persicae Sulzer); test: bioactivity test against green peach aphid, airbrush foliar spray; format: in vivo; conditions: for Insecticidal activity against peach aphid (%): contrastive test; for control (test results against green peach aphid): death rate after 48 hrs
Protocol: (§1) Compounds were dissolved in mixed solvent (acetone:methanol=1:1), and diluted to required concentration with water containing 0.1% of tween 80.
(§2) Diamond back moth, armyworm, peach aphid and carmine spider mite were used as targets and the method of spraying by airbrush was used for determination of insecticidal biassays.
Method: Filter papers were put in culture dishes (Diameter=6 cm), and water was dripped on filter papers for preserving moisture. Green peach aphids (Myzus Persicae Sulzer) were maintained on cabbage. Leaves (Diameter=3 cm) of approximately 15-30 aphids were put in the culture dishes. Bioactivity tests were used the method of Airbrush Foliar Spray, pressure=10 psi (0.7 kg/cm2), spray volume=0.5 mL. The studies were conducted at […] 25±1 C in incubator cabinets with 60±5% RH. Survey the survival aphids after 48 hrs and calculate the death rates.

carmine spider mite = test: bioactivity test against carmine spider mite, airbrush spray; format: in vivo; conditions: for Insecticidal activity against carmine spider mite (% ): contrastive test; for control against carmine spider mite: mortality after 72 hrs
Protocol: as §1, §2
The method: Broadbean shoots with two true leaves in pot were taken, the healthy adults of carmine spider mite were inoculated to the leaves. The adults were counted and then sprayed with airbrush at the pressure of 0.7 kg/cm^2 and at dose of 0.5 ml. 3 replicates were set for each treatment. And then they were maintained in standard observation room. Scores were conducted and mortalities were calculated after 72 hrs.

corn rust = test: protectant activity in vivo against corn rust; conditions: for control effect against corn rust (%): protectant activity
wheat powdery mildew = test: protectant activity in vivo against wheat powdery mildew; conditions: for control effect against wheat powdery mildew (%): protectant activity
cucumber downy mildew = test: protectant activity in vivo against cucumber downy mildew; conditions: for control effect against cucumber downy mildew (%): protectant activity

| SMILES | control (test results against green peach aphid) ([1]; 10 ppm) | control (test results against green peach aphid) ([1]; 100 ppm) | control (test results against green peach aphid) ([1]; 600 ppm) | control against carmine spider mite (carmine spider mite; 600 ppm) | protectant activity against corn rust in vivo (corn rust; 400 ppm) | protectant activity against wheat powdery mildew in vivo (wheat powdery mildew; 100 ppm) | protectant activity against wheat powdery mildew in vivo (wheat powdery mildew; 400 ppm) | protectant activity against cucumber downy mildew in vivo (cucumber downy mildew; 100 ppm) | protectant activity against cucumber downy mildew in vivo (cucumber downy mildew; 400 ppm) | protectant activity against cucumber downy mildew in vivo (cucumber downy mildew; 25 ppm) | protectant activity against cucumber downy mildew in vivo (cucumber downy mildew; 50 ppm) | control effect against cucumber downy mildew (%) (cucumber downy mildew; 25 mg/L) | control effect against cucumber downy mildew (%) (cucumber downy mildew; 50 mg/L) | control effect against cucumber downy mildew (%) (cucumber downy mildew; 100 mg/L) | control effect against cucumber downy mildew (%) (cucumber downy mildew; 400 mg/L) | other results |
| --- | --- | --- | --- | --- | --- | --- | --- | --- | --- | --- | --- | --- | --- | --- | --- | --- |
| CC(F)c1ncnc(NCCc2ccc(Oc3ncc(C(F)(F)F)cc3Cl)cc2)c1Cl (stereo not drawn) [CK2, reference compound] |  |  |  |  |  |  |  |  |  |  |  |  |  |  |  | Insecticidal activity against peach aphid (%) ([1]; 1.25 mg/L): 0%; Insecticidal activity against peach aphid (%) ([1]; 2.5 mg/L): 23%; Insecticidal activity against peach aphid (%) ([1]; 5 mg/L): 37%; Insecticidal activity against peach aphid (%) ([1]; 10 mg/L): 95%; Insecticidal activity against peach aphid (%) ([1]; 100 mg/L): 100%; Insecticidal activity against peach aphid (%) ([1]; 600 mg/L): 100%; Insecticidal activity against carmine spider mite (% ) (carmine spider mite; 10 mg/L): 32%; Insecticidal activity against carmine spider mite (% ) (carmine spider mite; 100 mg/L): 100%; Insecticidal activity against carmine spider mite (% ) (carmine spider mite; 600 mg/L): 100%; control effect against corn rust (%) (corn rust; 6.25 mg/L): 85%; control effect against corn rust (%) (corn rust; 25 mg/L): 100%; control effect against corn rust (%) (corn rust; 100 mg/L): 100%; control effect against corn rust (%) (corn rust; 400 mg/L): 100%; control effect against wheat powdery mildew (%) (wheat powdery mildew; 6.25 mg/L): 0%; control effect against wheat powdery mildew (%) (wheat powdery mildew; 25 mg/L): 80%; control effect against wheat powdery mildew (%) (wheat powdery mildew; 100 mg/L): 100%; control effect against wheat powdery mildew (%) (wheat powdery mildew; 400 mg/L): 100% |
| CCOC(=O)c1ccc(Oc2ccc(CCNc3ncnc(CC)c3Cl)cc2)nc1 [Compound I-267] | 100% | 100% | 100% | 100% | 100% | 100% | 100% |  |  |  |  |  |  |  |  |  |
| CCc1ncnc(NCCc2ccc(Oc3ncc(C(F)(F)F)cc3Cl)cc2)c1Cl [Compound I-602] |  | 100% | 100% | 100% |  | 100% | 100% | 100% | 100% |  |  |  |  |  |  |  |
| Cc1ncnc(NCCc2ccc(Oc3ncccc3C(F)(F)F)cc2)c1Cl [Compound I-929] |  |  | 100% | 100% | 100% |  | 100% |  |  |  |  |  |  |  |  |  |
| CCc1ncnc(NCCc2ccc(Oc3ncccc3C(F)(F)F)cc2)c1Cl [Compound I-987] | 100% | 100% | 100% | 100% | 100% | 100% | 100% | 100% | 100% |  |  |  |  |  |  | Insecticidal activity against carmine spider mite (% ) (carmine spider mite; 10 mg/L): 80%; Insecticidal activity against carmine spider mite (% ) (carmine spider mite; 100 mg/L): 100%; Insecticidal activity against carmine spider mite (% ) (carmine spider mite; 600 mg/L): 100%; control against carmine spider mite (carmine spider mite; 100 ppm): 100%; protectant activity against corn rust in vivo (corn rust; 100 ppm): 100% |
| Cc1ncnc(NCCc2ccc(Oc3ccc(C(F)(F)F)cn3)cc2)c1Br [Compound I-1762] | 100% | 100% | 100% | 100% | 100% |  | 100% |  | 100% |  |  |  |  |  |  | control (test results against green peach aphid) ([1]; 5 ppm): 100%; control against carmine spider mite (carmine spider mite; 100 ppm): 100% |
| Cc1ncnc(NCCc2ccc(Oc3ccc(C(F)(F)F)cn3)cc2)c1Cl.Cl [Compound I-6730] |  |  | 100% | 100% | 100% | 100% | 100% |  | 100% | 100% | 100% |  |  |  |  | protectant activity against wheat powdery mildew in vivo (wheat powdery mildew; 25 ppm): 100%; pest or weed control at 6.25 ppm (wheat powdery mildew; Triticum aestivum, 168 h, read-out: protectant activity against wheat powdery mildew in vivo, 6.25 ppm): 80 to 99%; pest or weed control at 100 ppm (cucumber downy mildew; Cucumis sativus, 168 h, read-out: protectant activity against cucumber downy mildew in vivo, 100 ppm): 100% |
| Cc1ncnc(NCCc2ccc(Oc3ccccc3Cl)nc2)c1Cl [III-5] |  |  | 100% | 100% |  |  | 100% | 100% | 100% | 100% | 100% | 100% | 100% | 100% | 100% |  |
| CCc1ncnc(NCCc2ccc(Oc3ccc(C(F)(F)F)cc3Cl)nc2)c1Cl [III-301] | 100% | 100% | 100% |  | 100% | 100% | 100% | 100% | 100% | 100% | 100% | 100% | 100% | 100% | 100% | Insecticidal activity against peach aphid (%) ([1]; 10 mg/L): 100%; Insecticidal activity against peach aphid (%) ([1]; 100 mg/L): 100%; Insecticidal activity against peach aphid (%) ([1]; 600 mg/L): 100%; protectant activity against corn rust in vivo (corn rust; 100 ppm): 100%; control effect against cucumber downy mildew (%) (cucumber downy mildew; 6.25 mg/L): 100%; control effect against cucumber downy mildew (%) (cucumber downy mildew; 12.5 mg/L): 100%; protectant activity against cucumber downy mildew in vivo (cucumber downy mildew; 6.25 ppm): 100%; protectant activity against cucumber downy mildew in vivo (cucumber downy mildew; 12.5 ppm): 100% |
| COc1ccc(Oc2ccc(CCNc3nc(C)nc(Cl)c3Cl)cn2)cc1 [III-2539] |  |  | 100% | 100% | 100% |  |  | 100% | 100% | 100% | 100% | 100% | 100% | 100% | 100% | control effect against cucumber downy mildew (%) (cucumber downy mildew; 12.5 mg/L): 85% |

— patent US9770026B2, “Substituted pyrimidine compound and uses thereof” (Shenyang Sinochem Agrochemicals R&D Co., Ltd., priority 2012, dated 2017)
